Counter-ions that a name gives are not always drawn.
Experiments:
[1] = system: male SD rats with prostate gland hypertrophy induced by testosterone; assay: Inhibition of prostatic hyperplasia in vivo (testosterone-induced prostate gland hypertrophy, prostate weight); conditions: testosterone 3 mg/kg/day s.c.; Examples 50 mg/kg oral, finasteride 2 mg/kg oral, 3 weeks
Excerpt: At this time, finasteride was used as the positive control group.
On the day of the last administration, the animals were weighed and then sacrificed, and blood was collected and the prostate glands were excised.

[2] = system: male SPF New Zealand albino rabbits; assay: Erectile promoting effect in vivo (erection start time and duration); parameters: species or system rabbit; conditions: oral, Examples 50 mg/kg, sildenafil citrate 20 mg/kg
Procedure: Based on the above results, the effects on erectile promotion of the compositions of Examples 6 to 9 of the present invention in vivo were measured. At this time, sildenafil citrate was used as a positive control group. Specifically, as experimental animals, six male SPF New Zealand albino rabbits (about 3.5 to 4.0 kg body weight, Samtako, Korea) per test group were used, and these rabbits were placed in cages and fed a constant amount of conventional solid feed for rabbits and water under the same condition for 4 days or more. The rabbit was fasted for 48 hours or more and then used for the test. When fasting, the rabbits were allowed to drink water freely. To the rabbit prepared as described above, the compositions of Examples 6 to 9 of the present invention were orally administered at a dose of 50 mg/kg per animal. Meanwhile, sildenafil citrate, a positive control group, was orally administered at a dose of 20 mg/kg. After administration as described above, the erection start time and duration were measured.

[3] = listed as positive control group

Structure (SMILES) | Prostate gland weight [1] | Prostate gland/body weight (%) [1] | Erection maintenance time ([2]; listed as Control group) | Erection start time ([2]; listed as Control group) | Maximum Erection time ([2]; listed as Control group) | Erection maintenance time [2, 3] | Erection start time [2, 3] | Maximum Erection time [2, 3]
CC(C)(C)NC(=O)[C@H]1CC[C@H]2[C@@H]3CC[C@H]4NC(=O)C=C[C@]4(C)[C@H]3CC[C@]12C [Finasteride, finasteride] | 0.92 ± 0.11 g | 0.24 ± 0.02% |  |  |  |  |  | 
CCCc1nn(C)c2c(=O)[nH]c(-c3cc(S(=O)(=O)N4CCN(C)CC4)ccc3OCC)nc12 [sildenafil citrate] |  |  | 120 ± 5 min | 6.2 ± 1.1 min | 19 ± 1 min | 120 min | about 6 Min. | about 19 Min.
